In this experiment the target is T1, GPR119 (Homo sapiens, UniProt Q8TDV5).
T1 construct: host or cells: CHO-K1 (CRE-bla reporter, doxycycline-induced)
T1 sequence (Q8TDV5 1-335): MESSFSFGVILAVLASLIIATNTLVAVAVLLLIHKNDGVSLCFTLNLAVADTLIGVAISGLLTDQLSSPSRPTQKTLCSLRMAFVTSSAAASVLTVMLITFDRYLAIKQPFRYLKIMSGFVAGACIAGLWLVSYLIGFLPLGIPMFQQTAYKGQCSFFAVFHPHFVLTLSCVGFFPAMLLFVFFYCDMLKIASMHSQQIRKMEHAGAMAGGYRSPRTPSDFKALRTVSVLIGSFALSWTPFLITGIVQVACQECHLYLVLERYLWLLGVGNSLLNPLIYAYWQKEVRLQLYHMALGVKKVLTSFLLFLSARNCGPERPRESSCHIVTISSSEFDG
The experiment is described as follows: Controlling Effect of GPR119 in CRE-bla CHO-K1 Cells (EC50). In kind it is cell-based. Particulars: GPR119 CRE-bla CHO-K1 cell line, 5 hr incubation with compound, β-lactamase LiveBLAzer-FRET B/G readout; read-out: controlling effect against GPR119 in CRE-bla CHO-K1 cell line (EC50). The protocol:
Controlling Effect of GPR119 in CRE-bla CHO-K1 Cells (EC50)
The day before the experiment, GPR119 CRE-bla CHO-K1 cell line purchased from Invitrogen was seeded in a 96 black well plate in an amount of 80 μl at a density of 5×10^4 cells. After the seeding, 10 μl of doxycycline in a concentration of 1 μg/ml was added to each well and incubated in an incubator at 37° C. under 5% CO2 for about 16 to 20 hr.
The day of experiment, sample compounds were performed a 10-fold serial dilution with a culture medium at various concentrations of 1 uM to […]. Considering that the culture medium used in the seeding and doxycycline are together applied, the sample compounds were diluted to a 5-fold dilution of the planned concentration. 20 μl of the compound diluted with the culture medium was added to each well and incubated in the incubator for 5 hr. The compound-untreated group was added with 20 μl of 0.5% dimethyl sulfoxide (DMSO) diluted with the culture medium. After 5 hr from the incubation, substrate mixture of a 6-fold concentration were prepared; 6 μl of 1 mM LiveBLAzer™-FRET B/G(CCF4-AM) substrate, 60 μl of solution B, 904 μl of solution C and 30 μl of solution D. 12 μl of the substrate mixture was added to each well and allowed to be kept at room temperature for 2 hr with shading the light. Fluorescence intensity value of blue channel and green channel was determined by a fluorescence microplate reader at 409 nm/460 nm and 409 nm/[…] (excitation/emission), respectively. In order to confirm the controlling effect of the inventive compounds against GPR119, EC50 (half maximal effective concentration) was determined based on the determined values. EC50, the concentration at which 50% activity of β-lactamase, was determined according to the following Equation: Equation=[(Ti−Tz)/(C−Tz)]×100
[Wherein, Ti: Cell density of the compound-treated group; Tz: Cell density of the negative control group; and C: Cell density of the positive control group]

As for `CS(=O)(=O)c1ccc(-c2csc3c(OC4CCN(c5nc(C6CCC6)no5)CC4)ncnc23)cc1` [Example 54, 3-cyclobutyl-5-(4-(7-(4-methanesulfonyl-phenyl)thieno[3,2-d]pyrimidin-4-yloxy)piperidin-1-yl)-1,2,4-oxadiazole], the EC50 was below 100 nM.
In the case of `CCc1cnc(N2CCC(Oc3ncnc4c(-c5ccc(S(C)(=O)=O)cc5)csc34)CC2)nc1` [Example 55, 4-(1-(5-ethylpyrimidin-2-yl)piperidin-4-yloxy)-7-(4-methanesulfonyl-phenyl)thieno[3,2-d]pyrimidine] it was below 100 nM; in that of `CS(=O)(=O)c1ccc(-c2csc3c(OC4CCN(c5ncc(C6CC6)cn5)CC4)ncnc23)cc1` [Example 56, 4-[1-(5-cyclopropyl-pyrimidin-2-yl)-piperidin-4-yloxy]-7-(4-methanesulfonyl-phenyl)-thieno[3,2-d]pyrimidine], below 100 nM.
In the case of `CCc1cnc(N2CCC(Oc3ncnc4c(-c5ccc(S(C)(=O)=O)cc5)csc34)C2)nc1` (centres unmarked) [Example 57, 4-[1-(5-ethylpyrimidin-2-yl)-pyrrolidin-3-yloxy]-7-(4-methanesulfonyl-phenyl)-thieno[3,2-d]pyrimidine] it was below 100 nM.
With `CC(C)c1noc(N2CCC(Oc3ncnc4c(-c5ccc(S(C)(=O)=O)cc5)csc34)C2)n1` (centres unmarked) [Example 58, 4-[1-(3-isopropyl-[1,2,4]oxadiazol-5-yl)-pyrrolidin-3-yloxy]-7-(4-methanesulfonyl-phenyl)-thieno[3,2-d]pyrimidine], the EC50 was 100 to 1000 nM.
In the case of `CS(=O)(=O)c1ccc(-c2csc3c(OC4CCN(c5nccc(C(F)(F)F)n5)CC4)ncnc23)cc1` [Example 59] it was above 1000 nM.
The value for `CC(C)c1noc(N2CCC(Oc3ncnc4c(-c5ccc(S(C)(=O)=O)cc5F)csc34)CC2)n1` [Example 60, 7-(2-fluoro-4-methanesulfonyl-phenyl)-4-[1-(3-isopropyl-[1,2,4]oxadiazol-5-yl)piperidin-4-yloxy]thieno[3,2-d]pyrimidine] was below 100 nM.
In the case of `CCc1noc(N2CCC(Oc3ncnc4c(-c5ccc(S(C)(=O)=O)cc5F)csc34)CC2)n1` [Example 61, 3-ethyl-5-(4-(7-(2-fluoro-4-methanesulfonyl-phenyl)thieno[3,2-d]pyrimidin-4-yloxy)piperidin-1-yl)-1,2,4-oxadiazole] it was below 100 nM.
In the case of `CCC(C)c1noc(N2CCC(Oc3ncnc4c(-c5ccc(S(C)(=O)=O)cc5F)csc34)CC2)n1` (centres unmarked) [Example 62, 3-sec-butyl-5-(4-(7-(2-fluoro-4-methanesulfonyl-phenyl)thieno[3,2-d]pyrimidin-4-yloxy)piperidin-1-yl)-1,2,4-oxadiazole], the EC50 was below 100 nM.
In the case of `CS(=O)(=O)c1ccc(-c2csc3c(OC4CCN(c5nc(C6CC6)no5)CC4)ncnc23)c(F)c1` [Example 63, 7-(2-fluoro-4-methanesulfonyl-phenyl)-4-[1-(3-cyclopropyl-[1,2,4]oxadiazol-5-yl)piperidin-4-yloxy]thieno[3,2]pyrimidine] it was below 100 nM.
Take `CS(=O)(=O)c1ccc(-c2csc3c(OC4CCN(c5nc(-c6ccccc6)no5)CC4)ncnc23)c(F)c1` [Example 64, 5-(4-(7-(2-fluoro-4-methanesulfonyl-phenyl)thieno[3,2-d]pyrimidin-4-yloxy)piperidin-1-yl)-3-phenyl-1,2,4-oxadiazole]: the EC50 is below 100 nM.
In the case of `CS(=O)(=O)c1ccc(-c2csc3c(OC4CCN(c5nc(-c6ccc(F)cc6)no5)CC4)ncnc23)c(F)c1` [Example 65, 5-(4-(7-(2-fluoro-4-methanesulfonyl-phenyl)thieno[3,2-d]pyrimidin-4-yloxy)piperidin-1-yl)-3-(4-fluorophenyl)-1,2,4-oxadiazole] it was below 100 nM; in that of `CS(=O)(=O)c1ccc(-c2csc3c(OC4CCN(c5nc(-c6ccncc6)no5)CC4)ncnc23)c(F)c1` [Example 66, 5-(4-(7-(2-fluoro-4-methanesulfonyl-phenyl)thieno[3,2-d]pyrimidin-4-yloxy)piperidin-1-yl)-3-(pyridin-4-yl)-1,2,4-oxadiazole], below 100 nM; in that of `CS(=O)(=O)c1ccc(-c2csc3c(OC4CCN(c5nc(-c6cccnc6)no5)CC4)ncnc23)c(F)c1` [Example 67, 5-(4-(7-(2-fluoro-4-methanesulfonyl-phenyl)thieno[3,2-d]pyrimidin-4-yloxy)piperidin-1-yl)-3-(pyridin-3-yl)-1,2,4-oxadiazole], below 100 nM.
The value for `CS(=O)(=O)c1ccc(-c2csc3c(OC4CCN(c5nc(-c6cnccn6)no5)CC4)ncnc23)c(F)c1` [Example 68, 5-(4-(7-(2-fluoro-4-methanesulfonyl-phenyl)thieno[3,2-d]pyrimidin-4-yloxy)piperidin-1-yl)-3-(pyrazin-2-yl)-1,2,4-oxadiazole] was 100 to 1000 nM.
The value for `CS(=O)(=O)c1ccc(-c2csc3c(OC4CCN(c5nc(CC6CC6)no5)CC4)ncnc23)c(F)c1` [Example 69, 7-(2-fluoro-4-methanesulfonyl-phenyl)-4-[1-(3-cyclopropylmethyl-[1,2,4]oxadiazol-5-yl)piperidin-4-yloxy]thieno[3,2-d]pyrimidine] was below 100 nM.
Turning to `CS(=O)(=O)c1ccc(-c2csc3c(OC4CCN(c5nc(C6CCCC6)no5)CC4)ncnc23)c(F)c1` [Example 70, 7-(2-fluoro-4-methanesulfonyl-phenyl)-4-[1-(3-cyclopentyl-[1,2,4]oxadiazol-5-yl)piperidin-4-yloxy]thieno[3,2-d]pyrimidine], the EC50 is below 100 nM.
The value for `CC(C)(C)c1noc(N2CCC(Oc3ncnc4c(-c5ccc(S(C)(=O)=O)cc5F)csc34)CC2)n1` [Example 71, 7-(2-fluoro-4-methanesulfonyl-phenyl)-4-[1-(3-t-butyl-[1,2,4]oxadiazol-5-yl)piperidin-4-yloxy]thieno[3,2-d]pyrimidine] was below 100 nM; that for `CC(C)(C)OC(=O)N1CCC(Oc2ncnc3c(-c4ccc(S(C)(=O)=O)cc4F)csc23)CC1` [Example 72, tert-butyl 4-(7-(2-fluoro-4-methanesulfonyl-phenyl)thieno[3,2-d]pyrimidin-4-yloxy)piperidin-1-carboxylate] was below 100 nM; that for `CC(C)OC(=O)N1CCC(Oc2ncnc3c(-c4ccc(S(C)(=O)=O)cc4F)csc23)CC1` [Example 73, isopropyl 4-(7-(2-fluoro-4-methanesulfonyl-phenyl)thieno[3,2-d]pyrimidin-4-yloxy)piperidin-1-carboxylate] was below 100 nM.
The value for `CN1CCC(Oc2ncnc3c(-c4ccc(S(C)(=O)=O)cc4F)csc23)CC1` [Example 74, 7-(2-fluoro-4-methanesulfonyl-phenyl)-4-[1-methylpiperidin-4-yloxy]thieno[3,2-d]pyrimidine] was above 1000 nM; that for `CS(=O)(=O)c1ccc(-c2csc3c(OC4CCN(C#N)CC4)ncnc23)c(F)c1` [Example 75, 4-(7-(2-fluoro-4-methanesulfonyl-phenyl)thieno[3,2-d]pyrimidin-4-yloxy)piperidin-1-carbonitrile] was 100 to 1000 nM.
With `CS(=O)(=O)c1ccc(-c2csc3c(OC4CCNCC4)ncnc23)c(F)c1` [Example 76, 7-(2-fluoro-4-methanesulfonyl-phenyl)-4-[piperidin-4-yloxy]thieno[3,2-d]pyrimidine], the EC50 is above 1000 nM.
Turning to `CS(=O)(=O)c1ccc(-c2csc3c(OC4CCN(c5nc6ccccc6o5)CC4)ncnc23)c(F)c1` [Example 77, 2-(4-(7-(2-fluoro-4-methanesulfonyl-phenyl)thieno[3,2-d]pyrimidin-4-yloxy)piperidin-1-yl)benzo[d]oxazole], the EC50 is below 100 nM.
Consider `CC(C)Cc1noc(N2CCC(Oc3ncnc4c(-c5ccc(S(C)(=O)=O)cc5F)csc34)CC2)n1` [Example 78, 7-(2-fluoro-4-methanesulfonyl-phenyl)-4-[1-(3-isobutyl-[1,2,4]oxadiazol-5-yl)piperidin-4-yloxy]thieno[3,2-d]pyrimidine], for which the EC50 was below 100 nM.
In the case of `CS(=O)(=O)c1ccc(-c2csc3c(OC4CCN(c5nc(C6CCCCC6)no5)CC4)ncnc23)c(F)c1` [Example 79, 7-(2-fluoro-4-methanesulfonyl-phenyl)-4-[1-(3-cyclohexyl-[1,2,4]oxadiazol-5-yl)piperidin-4-yloxy]thieno[3,2-d]pyrimidine] it was below 100 nM.

Source of the values: US8853213B2, “Bicyclic compound for modulating G protein-coupled receptors” (Hanmi Pharm. Co., Ltd, priority 2011, dated 2014).
